Results published in US9376449B2, “Indole carboxamide derivative” (Astellas Pharma Inc., priority 2012, dated 2016).

system: 3T3; experiment: In vitro 3T3 NRU phototoxicity test; format: cell-based; details: not given
Description: Test Example 6 Drug Pharmacokinetic Test, Safety Pharmacology Test, and Toxicity Test
Using some Example compounds of the present invention, a drug Pharmacokinetic test, a safety pharmacology test, and a toxicity test were carried out.
(iii) For the toxicity test, for example, an in vitro phototoxicity test was carried out. The evaluation of the in vitro phototoxicity test was carried out in accordance with Guidance for industry photosafety testing, Center for Drug Evaluation and Research Food and Drug Administration, 2003, which is a guideline of FDA (U.S. Food and Drug Administration), and Note for guidance on photosafety testing (CPMP/SWP/398/01, 2002) which is a guideline of EMA (European Medicines Agency), and the method described in OECD guideline for testing of chemicals 432: In vitro 3T3 NRU phototoxicity test, 2004, which is a test method described in the report of OECD.

SMILES	phototoxicity action
CNC(=O)c1[nH]c2ccc(OC)cc2c1CCNC(C)=O [Ex 1, 3-(2-acetamidoethyl)-5-methoxy-N-methyl-1H-indole-2-carboxamide]	no phototoxicity action
CNC(=O)NCCc1c(C(=O)NC)[nH]c2ccc(OC)cc12 [Ex 8, 5-methoxy-N-methyl-3-{2-[(methylcarbamoyl)amino]ethyl}-1H-indole-2-carboxamide]	no phototoxicity action

system: isolated urethra; experiment: Isolated urethra contractile action; set-up: species or system rat; details: test compound at 1 μM; contractile response by 10 μM phenylephrine as 100%; SD female rat urethra; read-out: Isolated urethra contraction (%)
Description: Test Example 2 Isolated Urethra Contractile Action
(1) Evaluation Test on Urethra Contractile Action of Test Compound Using Isolated Urethra
The urethra was isolated from an SD female rat having a body weight of 100 to 500 g. The isolated urethra was incised longitudinally to give a rectangular strip specimen having a width of about 3 mm, which was suspended in the circular muscle direction in 10 mL of a tissue bath filled with a Krebs-Henseleit solution (pH 7.4). The Krebs-Henseleit solution was bubbled with 95% O2 and 5% CO2, and kept at 37° C. The resting tension was set to 0.5 g to record the isometric contraction. After the resting tension was stabilized, contraction was elicited by the addition of 10 μM phenylephrine. After washing and stabilizing, the test compound was added cumulatively to a final concentration of −12 to −5 log M to measure a contractile response. By taking the contractile response by 10 μM phenylephrine as 100%, the ratio of the contractile response in the concentration of the test compound at 1 μM was calculated.
(§1) Ex represents Example No. of the test compound.

SMILES	activation at 1 µM
CNC(=O)c1[nH]c2ccc(OC)cc2c1CCNC(C)=O [Ex 1, 3-(2-acetamidoethyl)-5-methoxy-N-methyl-1H-indole-2-carboxamide]	128%
CCCC(=O)NCCc1c(C(=O)NC)[nH]c2ccc(OC)cc12 [Ex 32]	143%
CCCC(=O)NCCc1c(C(=O)NC)[nH]c2cc(F)c(OC)cc12 [Ex 35]	171%
CCC(=O)NCCc1c(C(=O)NC)[nH]c2cc(F)c(OC)cc12 [Ex 36]	107%

target: T1, human MT2 receptor (Homo sapiens, UniProt P49286); experiment: Activation of human MT2 receptor in receptor-expressing HEK293 cells (intracellular Ca2+, FLIPR); format: cell-based; details: HEK293; maximum reaction by ramelteon taken as 100%, solvent only 0%
T1 sequence (P49286 1-362): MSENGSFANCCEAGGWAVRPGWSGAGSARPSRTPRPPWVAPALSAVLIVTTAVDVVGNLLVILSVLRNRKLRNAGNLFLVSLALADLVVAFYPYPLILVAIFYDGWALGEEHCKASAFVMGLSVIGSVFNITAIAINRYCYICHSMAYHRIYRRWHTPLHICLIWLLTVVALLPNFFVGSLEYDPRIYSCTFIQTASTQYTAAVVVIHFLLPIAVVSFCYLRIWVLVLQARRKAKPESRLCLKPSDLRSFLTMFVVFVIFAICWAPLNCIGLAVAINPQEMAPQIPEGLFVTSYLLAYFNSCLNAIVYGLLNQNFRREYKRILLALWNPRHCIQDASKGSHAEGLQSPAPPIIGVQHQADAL
Description: (§2) (1) Isolation of Human MT1 and MT2 Receptor and Construction of Expression Vector
(§3) A human MT1 receptor gene (GenBank Accession No.: NM_005958.3) and a human MT2 receptor gene (GenBank Accession No.: NM_005959.3) were each introduced into an expression vector pCDNA3.1/Zeo (Invitrogen, Inc.).
(§4) (2) Construction of Cells Stably Expressing Human MT1 and Human MT2 Receptor
(§5) The introduction was carried out according to the attached instructions, using a Lipofectoamine (registered trademark) 2000 Reagent (Invitrogen, Inc.). Zeocin and hygromycin were used as a resistant drug, and the cell was incubated for 15 days at 0.02 mg/mL and 0.05 mg/mL, respectively, thereby acquiring drug-resistant clones.
(§6) (3) Measurement of Intracellular Ca^2+ Concentration by FLIPR (Registered Trademark)
(§7) The respective stably expressing cells were dispensed into 96-well poly-D-lysine-coated plates (Falcon Co.) to 40,000 cells/well the day before the experiment, and incubated overnight in a DMEM (Invitrogen, Inc.) medium including 10% FBS at 37° C. and 5% CO2. The medium was replaced with a loading buffer (washing solution (Hank's balanced salt solution (HBSS), 20 mM HEPES-NaOH, 2.5 mM probenecid) including Fluo-4AM (Dojindo Co.) at 4 μM), and incubated for 1 hour at 37° C. and 5% CO2. Thereafter, the cells were washed with a plate washer (ELx405, BIO-TEK Instrument, Inc.) set with the washing solution, and set in an intracellular Ca^2+ concentration measuring systems (FLIPR (registered trademark), Molecular Device Co.). The test compound was dissolved in the washing solution in advance, diluted to a final concentration of −12 to −5 log M, set in a FLIPR (registered trademark) device together with the cells, and added to the cells in the device. At this time, a change in the intracellular Ca^2+ concentrations was measured.
as §1

SMILES	Emax
CCCC(=O)NCCc1c(C(=O)NC)[nH]c2ccc(OC)cc12 [Ex 32]	111%
CCCC(=O)NCCc1c(C(=O)NC)[nH]c2cc(F)c(OC)cc12 [Ex 35]	102%
CCC(=O)NCCc1c(C(=O)NC)[nH]c2cc(F)c(OC)cc12 [Ex 36]	104%

The next lines start with the values.

Emax	SMILES
108%	CNC(=O)c1[nH]c2ccc(OC)cc2c1CCNC(C)=O [Ex 1, 3-(2-acetamidoethyl)-5-methoxy-N-methyl-1H-indole-2-carboxamide]
119%	CNC(=O)NCCc1c(C(=O)NC)[nH]c2ccc(OC)cc12 [Ex 8, 5-methoxy-N-methyl-3-{2-[(methylcarbamoyl)amino]ethyl}-1H-indole-2-carboxamide]
70%	CNC(=O)c1[nH]c2cc(Cl)c(OC)cc2c1CCNC(C)=O [Ex 12, 3-(2-acetamidoethyl)-6-chloro-5-methoxy-N-methyl-1H-indole-2-carboxamide]

same assay, conditions: HEK293 cells stably expressing human MT2 and Gq/i chimeric G-protein; intracellular Ca2+ by FLIPR

SMILES	EC50
CCCC(=O)NCCc1c(C(=O)NC)[nH]c2ccc(OC)cc12 [Ex 32]	0.031 µM
CCCC(=O)NCCc1c(C(=O)NC)[nH]c2cc(F)c(OC)cc12 [Ex 35]	0.011 µM
CCC(=O)NCCc1c(C(=O)NC)[nH]c2cc(F)c(OC)cc12 [Ex 36]	0.018 µM

Further compounds by falling EC50, results first:

EC50	SMILES
0.026 µM	CNC(=O)c1[nH]c2ccc(OC)cc2c1CCNC(C)=O [Ex 1, 3-(2-acetamidoethyl)-5-methoxy-N-methyl-1H-indole-2-carboxamide]
0.019 µM	CNC(=O)NCCc1c(C(=O)NC)[nH]c2ccc(OC)cc12 [Ex 8, 5-methoxy-N-methyl-3-{2-[(methylcarbamoyl)amino]ethyl}-1H-indole-2-carboxamide]
0.012 µM	CNC(=O)c1[nH]c2cc(Cl)c(OC)cc2c1CCNC(C)=O [Ex 12, 3-(2-acetamidoethyl)-6-chloro-5-methoxy-N-methyl-1H-indole-2-carboxamide]

target: human MT1 receptor (Homo sapiens, UniProt P48039); experiment: Activation of human MT1 receptor in receptor-expressing HEK293 cells (intracellular Ca2+, FLIPR); format: cell-based; details: HEK293; maximum reaction by ramelteon taken as 100%, solvent only 0%; read-out: MT1 Emax (%)
Sequence (P48039 whole entry): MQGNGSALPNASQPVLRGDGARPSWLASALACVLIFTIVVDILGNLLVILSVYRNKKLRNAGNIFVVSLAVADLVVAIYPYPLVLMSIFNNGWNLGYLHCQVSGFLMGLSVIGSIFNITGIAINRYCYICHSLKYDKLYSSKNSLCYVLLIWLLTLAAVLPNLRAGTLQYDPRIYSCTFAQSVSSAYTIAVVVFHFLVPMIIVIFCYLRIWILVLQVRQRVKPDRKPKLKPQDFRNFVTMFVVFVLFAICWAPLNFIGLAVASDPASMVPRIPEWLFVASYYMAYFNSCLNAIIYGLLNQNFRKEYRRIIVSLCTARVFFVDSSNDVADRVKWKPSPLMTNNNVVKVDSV
Description: as §2, §3, §4, §5, §6, §7, §1

SMILES	Emax
CCCC(=O)NCCc1c(C(=O)NC)[nH]c2ccc(OC)cc12 [Ex 32]	106%
CCCC(=O)NCCc1c(C(=O)NC)[nH]c2cc(F)c(OC)cc12 [Ex 35]	110%
CCC(=O)NCCc1c(C(=O)NC)[nH]c2cc(F)c(OC)cc12 [Ex 36]	121%

Results, then the compound that gave them:

Emax	SMILES
104%	CNC(=O)c1[nH]c2ccc(OC)cc2c1CCNC(C)=O [Ex 1, 3-(2-acetamidoethyl)-5-methoxy-N-methyl-1H-indole-2-carboxamide]
124%	CNC(=O)NCCc1c(C(=O)NC)[nH]c2ccc(OC)cc12 [Ex 8, 5-methoxy-N-methyl-3-{2-[(methylcarbamoyl)amino]ethyl}-1H-indole-2-carboxamide]
68%	CNC(=O)c1[nH]c2cc(Cl)c(OC)cc2c1CCNC(C)=O [Ex 12, 3-(2-acetamidoethyl)-6-chloro-5-methoxy-N-methyl-1H-indole-2-carboxamide]

same assay, conditions: HEK293 cells stably expressing human MT1 and Gq/i chimeric G-protein; intracellular Ca2+ by FLIPR

SMILES	EC50
CCCC(=O)NCCc1c(C(=O)NC)[nH]c2ccc(OC)cc12 [Ex 32]	0.0077 µM
CCCC(=O)NCCc1c(C(=O)NC)[nH]c2cc(F)c(OC)cc12 [Ex 35]	0.0032 µM
CCC(=O)NCCc1c(C(=O)NC)[nH]c2cc(F)c(OC)cc12 [Ex 36]	0.01 µM

Other lines, results leading:

EC50	SMILES
0.012 µM	CNC(=O)c1[nH]c2ccc(OC)cc2c1CCNC(C)=O [Ex 1, 3-(2-acetamidoethyl)-5-methoxy-N-methyl-1H-indole-2-carboxamide]
0.012 µM	CNC(=O)NCCc1c(C(=O)NC)[nH]c2ccc(OC)cc12 [Ex 8, 5-methoxy-N-methyl-3-{2-[(methylcarbamoyl)amino]ethyl}-1H-indole-2-carboxamide]
0.086 µM	CNC(=O)c1[nH]c2cc(Cl)c(OC)cc2c1CCNC(C)=O [Ex 12, 3-(2-acetamidoethyl)-6-chloro-5-methoxy-N-methyl-1H-indole-2-carboxamide]

system: urethral pressure; experiment: Effect of test compound on urethral pressure in anesthetized rats; format: in vivo, rat; details: 0.1 mg/kg intravenously, urethane-anesthetized SD female rats
Source text: Test Example 3 Test to Evaluate Effect of Test Compound on Urethral Pressure
It has been reported that an increase in the urethra pressure is useful for the treatment of urinary incontinence, particularly stress urinary incontinence (for example, Drugs, 64, 14, 1503-1516 (2004)). In order to confirm whether the compound of the present invention increases the urethra pressure and thus is useful for the treatment of urinary incontinence, particularly stress urinary incontinence, the following tests were carried out.
SD female rats were anesthetized with urethane and subjected to laparotomy. Then, the bladder apex was incised and a catheter was inserted from the bladder apex. Further, the catheter tip was ligated and fixed to be located in the proximal urethra portion. The catheter was connected to a pressure transducer and an infusion pump. Further, a catheter for administrating the compound was fitted into the femoral vein. Physiological saline was continuously infused into the urethra and the perfusion pressure in the urethra was measured. After the urethral pressure was stabilized, the test compound that had been dissolved in physiological saline, or physiological saline including 5% dimethylacetamide and 0.5% Cremophor was administered intravenously at 0.1 mg/kg, and a change in urethral pressures was measured.
Further, the results of administering an active metabolite of midodrine (ST-1059: purchased from CHEMIZON) (J. Urology, 118, 980-982 (1977)) which is an α1 adrenoceptor agonist and has an effect on stress urinary incontinence in rat doses (0.01 mg/kg) presumed to correspond to the clinical doses are referenced and shown in the Tables below. The increment value in the urethra pressures of ramelteon and the Example compounds of the present invention at the time of administration are shown in Table 4. Ex represents Example No. of the test compound.

SMILES	Increment value in the urethra pressures (mmHg)
CNC(=O)c1[nH]c2ccc(OC)cc2c1CCNC(C)=O [Ex 1, 3-(2-acetamidoethyl)-5-methoxy-N-methyl-1H-indole-2-carboxamide]	5.1 ± 0.6 mmHg
CNC(=O)NCCc1c(C(=O)NC)[nH]c2ccc(OC)cc12 [Ex 8, 5-methoxy-N-methyl-3-{2-[(methylcarbamoyl)amino]ethyl}-1H-indole-2-carboxamide]	6.0 ± 0.4 mmHg
CCCC(=O)NCCc1c(C(=O)NC)[nH]c2ccc(OC)cc12 [Ex 32]	10.8 ± 2.9 mmHg
CCCC(=O)NCCc1c(C(=O)NC)[nH]c2cc(F)c(OC)cc12 [Ex 35]	8.2 ± 1.6 mmHg
CCC(=O)NCCc1c(C(=O)NC)[nH]c2cc(F)c(OC)cc12 [Ex 36]	7.3 ± 0.2 mmHg

system: not listed separately; experiment: CNS penetration: CSF to plasma unbound concentration ratio in rat; format: in vivo; details: CSF and plasma (unbound), iv, 15 minutes after intravenous administration, CCSF/Cplasma,u, read-out: Kp,uu,CSF,iv15min
Description: Test Example 4 Test for Evaluating CNS Penetration
(1) Measurement of Unbound Fraction (fp) in Rat Plasma
A test compound (100 μg/mL, 50% acetonitrile solution) at 1% (v/v) with respect to the amount of the plasma was added to rat plasma, and dispensed to a sample for a supernatant and a sample for the plasma. The sample for a supernatant was ultracentrifuged at 436,000×g and 37° C. for 140 minutes, and the sample for the plasma was incubated at 37° C. for 140 minutes.
After 140 minutes, the sample for a supernatant after the ultracentrifugation and the sample for the plasma were taken, and mixed with the blank plasma or the blank supernatant, respectively. Acetonitrile including an internal standard material was added to each of the samples, and after the centrifugation at 2150×g and 4° C. for 10 minutes the supernatant was injected into LC-MS/MS.
The unbound fraction in the plasma was calculated by the following equation.
(wherein fp: an unbound fraction in the plasma and D: a dilution rate of the plasma. fu,app=peak area ratio of supernatant sample/peak area ratio of the plasma sample, and peak area ratio=peak area of test compound/peak area of internal standard material).
(2) The CSF to Plasma Unbound Concentration Ratio in Rat
A 50% acetonitrile solution and an acetonitrile including internal standard material was added to the collected plasma or CSF. After centrifugation at 4° C. and 2150×g for 10 minutes, the supernatant was injected into LC-MS/MS, and the total concentration of the test compound in the plasma (Cplasma,t) and the concentration of the test compound in CSF (CCSF) were obtained. The unbound concentration in the plasma (Cplasma,u) of the test compound and the CSF-to plasma unbound concentration ratio (Kp,uu,CSF) of the test compound was calculated by the following equation.
as §1

Kp uu at 0.25 h	SMILES
0.18	CNC(=O)c1[nH]c2ccc(OC)cc2c1CCNC(C)=O [Ex 1, 3-(2-acetamidoethyl)-5-methoxy-N-methyl-1H-indole-2-carboxamide]
0.03	CNC(=O)NCCc1c(C(=O)NC)[nH]c2ccc(OC)cc12 [Ex 8, 5-methoxy-N-methyl-3-{2-[(methylcarbamoyl)amino]ethyl}-1H-indole-2-carboxamide]
